Patent US12364429B2, “Compositions and methods for a universal clinical test for olfactory dysfunction” (The Rockefeller University, priority 2017, dated 2025)

System: trigeminal system
Test: Lateralization task (odorant applied into only one nostril)
Assay type: in vivo, human
Conditions: pure concentration; number of correct tasks out of 20; eucalyptol 4 trials, vanillin 6 trials
Text: SMELL-S and SMELL-R were created with four different mixtures of 30 molecules drawn from a panel of 109 monomolecular, intensity-matched chemicals. These odorants were selected from stimuli utilized in previous psychophysical studies (21, 38). We used only molecules that minimally activated the trigeminal system, because such stimuli can be detected by anosmic subjects (39, 40). A characteristic of trigeminal activation by a molecule is a fresh, cold, burning, eucalyptus, pungent, or tickling sensation. We used a lateralization task in which an odorant is applied into only one nostril to assign a lateralization score to each molecule. It is possible to localize the stimulated nostril if it activates the trigeminal system. In contrast, it is much harder to localize an olfactory stimulus (41). Lateralization tasks were self-administered by one investigator. Two disposable squeeze bottles were placed in a device facilitating simultaneous squeezing and stimuli delivery in each nostril. Only one bottle was filled with an odor stimulus. The tip of each bottle was fitted with a foam piece that conformed to the investigator's nostril, and placed at the entrance of each nostril. The investigator squeezed both bottles simultaneously and attempted to localize which nostril had received the stimulus. After each task, the device was spun on a rotating platform to randomize the odor-stimulus side. […]

## COc1cc(C=O)ccc1O [vanillin]
  lateralization score (median): 6.5

## CC12CCC(CC1)C(C)(C)O2 [eucalyptol]
  lateralization score (median): 20
